Assay results taken from US11912660B2, “S6K1 protein kinase inhibitors as cancer therapeutics” (Xavier University of Louisiana, priority 2020, dated 2024).
Like-named read-outs stand apart in the source and are kept apart here.

Assays:
Assay in all cases: SelectScreen kinase panel screening
Type in all cases: biochemical
RPS6KB1 (p70S6K) = RPS6KB1 (p70S6K) (Homo sapiens (Human), UniProt P23443); details: for inhibition at 10 µM: RPS6KB1 (p70S6K)
Text: (§1) The complete list of the kinases given in Table 1 and their details can be found on the ThermoFisher website for Biochemical Kinase assays (thermofisher.com/us/en/home/industrial/pharma-biopharma/drug-discovery-development/target-and-lead-identification-and-validation/kinasebiology.html).
RJ1 was taken as the lead structure for the synthesis of several diamide and monoamide derivatives of 4,6-diaminoisoindolin-1,3-dione.

MATK (HYL) = MATK (HYL) (Homo sapiens (Human), UniProt P42679)
Text: as §1

PIK3CG (p110 gamma) = PIK3CG (p110 gamma) (Homo sapiens (Human), UniProt P48736)
PIK3CG (p110 gamma), sequence (P48736 whole entry): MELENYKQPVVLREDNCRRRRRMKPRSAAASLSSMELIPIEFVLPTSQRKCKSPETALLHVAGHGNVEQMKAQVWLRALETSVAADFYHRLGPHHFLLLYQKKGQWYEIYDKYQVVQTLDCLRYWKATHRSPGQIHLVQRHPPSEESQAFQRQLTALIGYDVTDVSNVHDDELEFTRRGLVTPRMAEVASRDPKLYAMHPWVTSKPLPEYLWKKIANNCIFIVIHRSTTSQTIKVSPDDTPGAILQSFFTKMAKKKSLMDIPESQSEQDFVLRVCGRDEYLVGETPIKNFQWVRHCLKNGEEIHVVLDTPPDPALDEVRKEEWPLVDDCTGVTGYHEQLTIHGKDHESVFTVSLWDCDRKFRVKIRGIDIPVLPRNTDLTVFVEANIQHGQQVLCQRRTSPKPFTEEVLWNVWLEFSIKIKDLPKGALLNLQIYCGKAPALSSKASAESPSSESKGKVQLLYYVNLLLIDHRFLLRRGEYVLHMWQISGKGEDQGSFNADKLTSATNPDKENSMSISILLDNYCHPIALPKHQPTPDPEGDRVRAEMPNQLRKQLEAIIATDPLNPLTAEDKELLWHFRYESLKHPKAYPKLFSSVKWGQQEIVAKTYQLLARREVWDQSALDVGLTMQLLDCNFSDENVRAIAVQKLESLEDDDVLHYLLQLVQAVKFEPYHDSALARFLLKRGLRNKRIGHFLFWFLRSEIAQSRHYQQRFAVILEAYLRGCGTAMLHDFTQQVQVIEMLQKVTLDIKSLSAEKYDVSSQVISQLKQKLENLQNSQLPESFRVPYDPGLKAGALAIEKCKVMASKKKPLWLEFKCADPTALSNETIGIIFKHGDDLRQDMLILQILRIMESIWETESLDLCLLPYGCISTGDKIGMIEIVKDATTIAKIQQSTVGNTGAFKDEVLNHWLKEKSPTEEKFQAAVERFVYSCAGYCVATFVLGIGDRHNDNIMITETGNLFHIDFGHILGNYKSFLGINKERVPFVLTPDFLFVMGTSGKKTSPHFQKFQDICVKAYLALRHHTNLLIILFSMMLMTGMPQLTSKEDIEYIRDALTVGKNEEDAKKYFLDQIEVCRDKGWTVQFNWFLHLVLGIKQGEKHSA
Text: as §1

PLK1 = PLK1 (Homo sapiens (Human), UniProt P53350)
Text: as §1

ROS1 = ROS1 (Homo sapiens (Human), UniProt P08922)
Text: as §1

MAP3K8 (COT) = MAP3K8 (COT) (Homo sapiens (Human), UniProt P41279)
Text: as §1

IGF1R = IGF1R (Homo sapiens (Human), UniProt P08069)
IGF1R, sequence (P08069 31-1367): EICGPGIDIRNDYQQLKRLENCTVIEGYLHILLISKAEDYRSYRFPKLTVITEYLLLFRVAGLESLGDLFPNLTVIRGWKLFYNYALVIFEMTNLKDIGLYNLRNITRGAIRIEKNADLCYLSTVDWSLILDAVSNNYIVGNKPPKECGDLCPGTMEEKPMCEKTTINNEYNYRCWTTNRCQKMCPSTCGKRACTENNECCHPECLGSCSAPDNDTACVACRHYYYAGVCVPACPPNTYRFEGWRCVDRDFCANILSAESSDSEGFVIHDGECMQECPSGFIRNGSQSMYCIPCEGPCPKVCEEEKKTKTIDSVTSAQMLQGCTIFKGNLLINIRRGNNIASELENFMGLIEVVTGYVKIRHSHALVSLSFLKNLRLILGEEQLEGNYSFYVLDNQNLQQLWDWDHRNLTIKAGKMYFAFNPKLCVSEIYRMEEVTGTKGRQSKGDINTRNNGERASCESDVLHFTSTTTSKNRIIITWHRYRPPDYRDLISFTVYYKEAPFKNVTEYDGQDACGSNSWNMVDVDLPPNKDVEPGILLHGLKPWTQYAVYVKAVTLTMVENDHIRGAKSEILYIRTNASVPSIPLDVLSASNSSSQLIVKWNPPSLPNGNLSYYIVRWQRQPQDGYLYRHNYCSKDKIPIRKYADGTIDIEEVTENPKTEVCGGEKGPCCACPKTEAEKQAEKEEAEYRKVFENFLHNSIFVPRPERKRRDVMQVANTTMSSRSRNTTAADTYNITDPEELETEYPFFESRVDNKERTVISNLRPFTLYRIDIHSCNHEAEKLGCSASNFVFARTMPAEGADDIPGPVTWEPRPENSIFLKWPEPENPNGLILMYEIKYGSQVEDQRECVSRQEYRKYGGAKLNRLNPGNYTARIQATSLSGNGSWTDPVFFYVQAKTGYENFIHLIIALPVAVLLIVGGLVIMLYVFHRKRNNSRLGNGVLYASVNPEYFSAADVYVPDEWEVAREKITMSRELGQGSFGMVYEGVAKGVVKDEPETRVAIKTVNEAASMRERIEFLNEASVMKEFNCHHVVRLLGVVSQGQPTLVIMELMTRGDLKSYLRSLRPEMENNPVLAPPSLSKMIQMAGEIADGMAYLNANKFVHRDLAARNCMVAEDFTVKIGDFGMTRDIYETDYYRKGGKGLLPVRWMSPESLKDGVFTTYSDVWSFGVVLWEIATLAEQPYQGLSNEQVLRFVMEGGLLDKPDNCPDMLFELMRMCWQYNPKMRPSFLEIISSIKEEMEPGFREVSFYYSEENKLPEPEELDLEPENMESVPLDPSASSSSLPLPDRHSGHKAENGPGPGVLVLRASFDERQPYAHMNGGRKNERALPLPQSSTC
Text: as §1

ALK = ALK (Homo sapiens (Human), UniProt Q9UM73)
Text: as §1

SPHK1 = SPHK1 (Homo sapiens (Human), UniProt Q9NYA1); details: read-out: % Inhibition class
Text: as §1

FLT4 (VEGFR3) = FLT4 (VEGFR3) (Homo sapiens (Human), UniProt P35916)
Text: as §1

PTK2B (FAK2) = PTK2B (FAK2) (Homo sapiens (Human), UniProt Q14289)
PTK2B (FAK2), sequence (Q14289 whole entry): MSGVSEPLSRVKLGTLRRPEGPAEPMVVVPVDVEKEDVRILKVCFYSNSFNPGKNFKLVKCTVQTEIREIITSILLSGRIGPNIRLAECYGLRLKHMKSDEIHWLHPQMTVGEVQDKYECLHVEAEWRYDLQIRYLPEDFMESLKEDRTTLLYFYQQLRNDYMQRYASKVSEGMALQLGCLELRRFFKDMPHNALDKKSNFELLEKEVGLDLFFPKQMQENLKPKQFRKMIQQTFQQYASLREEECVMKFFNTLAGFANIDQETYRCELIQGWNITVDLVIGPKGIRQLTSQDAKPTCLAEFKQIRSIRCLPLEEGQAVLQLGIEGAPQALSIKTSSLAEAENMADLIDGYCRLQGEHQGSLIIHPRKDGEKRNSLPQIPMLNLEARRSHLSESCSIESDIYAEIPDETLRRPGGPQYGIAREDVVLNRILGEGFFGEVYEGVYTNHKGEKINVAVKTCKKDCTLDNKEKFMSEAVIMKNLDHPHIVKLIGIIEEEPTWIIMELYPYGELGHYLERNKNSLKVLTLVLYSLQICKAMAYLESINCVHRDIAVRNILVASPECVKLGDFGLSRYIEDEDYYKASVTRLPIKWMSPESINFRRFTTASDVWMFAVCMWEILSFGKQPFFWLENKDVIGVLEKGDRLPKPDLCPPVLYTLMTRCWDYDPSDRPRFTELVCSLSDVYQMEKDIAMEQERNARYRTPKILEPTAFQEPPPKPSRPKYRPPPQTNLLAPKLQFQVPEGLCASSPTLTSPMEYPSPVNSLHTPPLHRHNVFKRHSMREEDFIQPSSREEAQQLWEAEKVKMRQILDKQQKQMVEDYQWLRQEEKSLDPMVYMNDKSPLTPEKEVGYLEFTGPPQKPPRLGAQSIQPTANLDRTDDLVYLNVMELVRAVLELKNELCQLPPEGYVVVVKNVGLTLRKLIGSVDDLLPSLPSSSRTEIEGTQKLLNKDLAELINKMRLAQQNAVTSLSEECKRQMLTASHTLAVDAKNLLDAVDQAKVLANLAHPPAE
Text: as §1

PLK3 = PLK3 (Homo sapiens (Human), UniProt Q9H4B4)
Text: as §1

AURKA (Aurora A) = AURKA (Aurora A) (Homo sapiens (Human), UniProt O14965)
Text: as §1

FLT3 = FLT3 (Homo sapiens (Human), UniProt P36888)
Text: as §1

TBK1 = TBK1 (Homo sapiens (Human), UniProt Q9UHD2)
Text: as §1

[1] = target: PIK3CA/PIK3R1 (p110 alpha/p85 alpha) (Homo sapiens (Human), UniProt P42336); details: read-out: % Inhibition class
Text: as §1

FGR = FGR (Homo sapiens (Human), UniProt P09769)
Text: as §1

AXL = AXL (Homo sapiens (Human), UniProt P30530)
Text: as §1

LCK = LCK (Homo sapiens (Human), UniProt P06239)
Text: as §1

CDK9/cyclin T1 = CDK9/cyclin T1 (Homo sapiens (Human), UniProt P50750)
CDK9/cyclin T1, sequence (P50750 whole entry): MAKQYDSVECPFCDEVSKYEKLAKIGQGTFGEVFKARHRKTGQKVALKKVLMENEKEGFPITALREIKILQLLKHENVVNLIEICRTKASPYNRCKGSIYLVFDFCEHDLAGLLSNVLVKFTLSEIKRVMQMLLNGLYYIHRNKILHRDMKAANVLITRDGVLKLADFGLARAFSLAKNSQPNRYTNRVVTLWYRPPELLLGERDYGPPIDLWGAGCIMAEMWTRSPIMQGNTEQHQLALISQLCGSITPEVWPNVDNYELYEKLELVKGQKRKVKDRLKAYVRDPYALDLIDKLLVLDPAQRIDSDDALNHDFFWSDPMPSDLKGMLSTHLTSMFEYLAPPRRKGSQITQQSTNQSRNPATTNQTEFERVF
CDK9/cyclin T1, sequence (O60563 whole entry partner): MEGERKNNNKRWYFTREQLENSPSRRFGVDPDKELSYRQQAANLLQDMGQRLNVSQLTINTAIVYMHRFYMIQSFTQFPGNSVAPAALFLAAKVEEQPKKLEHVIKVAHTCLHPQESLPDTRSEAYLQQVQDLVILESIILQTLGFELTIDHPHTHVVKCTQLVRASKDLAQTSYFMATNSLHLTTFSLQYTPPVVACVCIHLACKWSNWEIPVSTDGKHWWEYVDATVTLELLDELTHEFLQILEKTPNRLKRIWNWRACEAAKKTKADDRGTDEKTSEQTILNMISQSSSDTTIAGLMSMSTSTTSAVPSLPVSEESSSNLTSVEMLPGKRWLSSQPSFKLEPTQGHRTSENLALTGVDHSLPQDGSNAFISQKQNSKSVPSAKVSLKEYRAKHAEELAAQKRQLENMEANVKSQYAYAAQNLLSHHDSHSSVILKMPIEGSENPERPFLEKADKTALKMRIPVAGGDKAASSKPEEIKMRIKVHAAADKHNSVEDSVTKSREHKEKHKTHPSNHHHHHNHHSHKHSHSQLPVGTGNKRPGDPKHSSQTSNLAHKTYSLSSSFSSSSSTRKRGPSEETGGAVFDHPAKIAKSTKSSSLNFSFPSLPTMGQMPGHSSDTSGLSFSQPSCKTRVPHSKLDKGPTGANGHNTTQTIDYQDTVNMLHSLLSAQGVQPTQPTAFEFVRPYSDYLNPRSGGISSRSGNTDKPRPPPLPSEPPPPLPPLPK
Text: as §1

FER = FER (Homo sapiens (Human), UniProt P16591)
Text: as §1

CDC42 BPA (MRCKA) = CDC42 BPA (MRCKA) (Homo sapiens (Human), UniProt Q5VT25)
Text: as §1

KDR (VEGFR2) = KDR (VEGFR2) (Homo sapiens (Human), UniProt P35968)
Text: as §1

EPHA2 = EPHA2 (Homo sapiens (Human), UniProt P29317)
Text: as §1

PRKCB2 (PKC beta II) = PRKCB2 (PKC beta II) (Homo sapiens (Human), UniProt P05771)
Text: as §1

SYK = SYK (Homo sapiens (Human), UniProt P43405)
Text: as §1

JAK3 = JAK3 (Homo sapiens (Human), UniProt P52333)
Text: as §1

MAP2K1 (MEK1) = MAP2K1 (MEK1) (Homo sapiens (Human), UniProt Q02750)
Text: as §1

PAK4 = PAK4 (Homo sapiens (Human), UniProt O96013)
Text: as §1

RPS6KB1 (p70S6K), sequence (P23443 whole entry): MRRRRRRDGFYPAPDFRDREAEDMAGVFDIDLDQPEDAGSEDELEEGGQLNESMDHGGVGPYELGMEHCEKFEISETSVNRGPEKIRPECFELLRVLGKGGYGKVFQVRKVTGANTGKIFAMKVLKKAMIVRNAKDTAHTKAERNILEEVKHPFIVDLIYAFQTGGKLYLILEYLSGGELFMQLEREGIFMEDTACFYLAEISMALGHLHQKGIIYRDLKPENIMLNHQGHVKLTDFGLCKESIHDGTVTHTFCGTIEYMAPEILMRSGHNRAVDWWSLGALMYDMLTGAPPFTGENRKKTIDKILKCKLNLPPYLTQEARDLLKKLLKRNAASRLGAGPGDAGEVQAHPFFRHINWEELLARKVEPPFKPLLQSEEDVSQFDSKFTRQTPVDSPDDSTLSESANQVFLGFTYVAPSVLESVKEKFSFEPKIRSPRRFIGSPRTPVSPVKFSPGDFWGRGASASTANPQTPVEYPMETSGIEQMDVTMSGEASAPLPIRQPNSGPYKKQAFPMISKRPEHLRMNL

Nc1cc(N)c2c(c1)C(=O)NC2=O [RJ1, 4,6-diaminoisoindoline-1,3-dione]
inhibition at 10 µM (RPS6KB1 (p70S6K); read-out: % Inhibition): 80%
inhibition at 10 µM (RPS6KB1 (p70S6K); read-out: % Inhibition class): ≥ 80%
selectivity against a panel of 120 disease relevant kinases (RPS6KB1 (p70S6K); SelectScreen panel): RPS6K1-selective inhibitor
inhibition at 10 µM (MATK (HYL); read-out: % Inhibition): -5%
inhibition at 10 µM (MATK (HYL); read-out: % Inhibition class): < 40%
% Inhibition (PIK3CG (p110 gamma); 10 μM): 11%
inhibition at 10 µM (PIK3CG (p110 gamma); read-out: % Inhibition): 12%
inhibition at 10 µM (PIK3CG (p110 gamma); read-out: % Inhibition class): < 40%
inhibition at 10 µM (PLK1; read-out: % Inhibition): 9%
inhibition at 10 µM (PLK1; read-out: % Inhibition class): < 40%
inhibition at 10 µM (ROS1; read-out: % Inhibition): 3%
inhibition at 10 µM (ROS1; read-out: % Inhibition class): < 40%
inhibition at 10 µM (MAP3K8 (COT); read-out: % Inhibition): 29%
inhibition at 10 µM (MAP3K8 (COT); read-out: % Inhibition class): < 40%
inhibition at 10 µM (IGF1R; read-out: % Inhibition): 10%
inhibition at 10 µM (IGF1R; read-out: % Inhibition class): < 40%
inhibition at 10 µM (ALK; read-out: % Inhibition): 32%
inhibition at 10 µM (ALK; read-out: % Inhibition class): < 40%
inhibition at 10 µM (SPHK1): < 40%
inhibition at 10 µM (FLT4 (VEGFR3); read-out: % Inhibition): 55%
inhibition at 10 µM (FLT4 (VEGFR3); read-out: % Inhibition class): 40 to 80%
inhibition at 10 µM (PTK2B (FAK2); read-out: % Inhibition): 18%
inhibition at 10 µM (PTK2B (FAK2); read-out: % Inhibition class): < 40%
inhibition at 10 µM (PLK3; read-out: % Inhibition): 77%
inhibition at 10 µM (PLK3; read-out: % Inhibition class): 40 to 80%
inhibition at 10 µM (AURKA (Aurora A); read-out: % Inhibition): 43%
inhibition at 10 µM (AURKA (Aurora A); read-out: % Inhibition class): 40 to 80%
inhibition at 10 µM (FLT3; read-out: % Inhibition): 29%
inhibition at 10 µM (FLT3; read-out: % Inhibition class): < 40%
inhibition at 10 µM (TBK1; read-out: % Inhibition): 18%
inhibition at 10 µM (TBK1; read-out: % Inhibition class): < 40%
inhibition at 10 µM [1]: < 40%
inhibition at 10 µM (FGR; read-out: % Inhibition): 51%
inhibition at 10 µM (FGR; read-out: % Inhibition class): 40 to 80%
inhibition at 10 µM (AXL; read-out: % Inhibition): 10%
inhibition at 10 µM (AXL; read-out: % Inhibition class): < 40%
inhibition at 10 µM (LCK; read-out: % Inhibition): 31%
inhibition at 10 µM (LCK; read-out: % Inhibition class): < 40%
% Inhibition (CDK9/cyclin T1; 10 μM): 16%
inhibition at 10 µM (CDK9/cyclin T1; read-out: % Inhibition): 10%
inhibition at 10 µM (CDK9/cyclin T1; read-out: % Inhibition class): < 40%
inhibition at 10 µM (FER; read-out: % Inhibition): 23%
inhibition at 10 µM (FER; read-out: % Inhibition class): < 40%
inhibition at 10 µM (CDC42 BPA (MRCKA); read-out: % Inhibition): 0%
inhibition at 10 µM (CDC42 BPA (MRCKA); read-out: % Inhibition class): < 40%
inhibition at 10 µM (KDR (VEGFR2); read-out: % Inhibition): 56%
inhibition at 10 µM (KDR (VEGFR2); read-out: % Inhibition class): 40 to 80%
inhibition at 10 µM (EPHA2; read-out: % Inhibition): 16%
inhibition at 10 µM (EPHA2; read-out: % Inhibition class): < 40%
inhibition at 10 µM (PRKCB2 (PKC beta II); read-out: % Inhibition): 23%
inhibition at 10 µM (PRKCB2 (PKC beta II); read-out: % Inhibition class): < 40%
inhibition at 10 µM (SYK; read-out: % Inhibition): 39%
inhibition at 10 µM (SYK; read-out: % Inhibition class): < 40%
inhibition at 10 µM (JAK3; read-out: % Inhibition): 28%
inhibition at 10 µM (JAK3; read-out: % Inhibition class): < 40%
inhibition at 10 µM (MAP2K1 (MEK1); read-out: % Inhibition): 13%
inhibition at 10 µM (MAP2K1 (MEK1); read-out: % Inhibition class): < 40%
inhibition at 10 µM (PAK4; read-out: % Inhibition): 29%
inhibition at 10 µM (PAK4; read-out: % Inhibition class): < 40%
